Laboratory results reported in publication PMC7290365, “Human Induced Pluripotent Stem Cell-Derived 3D-Neurospheres Are Suitable for Neurotoxicity Screening” (Cells, 2020).
Counter-ions that a name gives are not always drawn. Like-named read-outs stand apart in the source and are kept apart here.

Tests used:
[1] = system: hiPSC-derived 3D neurospheres; assay: cells; type: cell-based, human; details: for Effect on viability of 3D neurospheres (in words): D21 stage; for EC10 / EC25 / EC50: Homo sapiens, 72 h; for EC50: read-out: EC50 (cell viability) (converted)
Method: After thawing, NSCs (generated as detailed above) were cultured on POL/L (0.002%/1 µg/cm^2) coated plates (50,000 cells/cm^2). When reached 100% confluence NSCs were propagated with Accutase treatment and single-cell suspension was plated onto a low-adherent 96-well plate with 10,000 cells/well in NMM medium. […] Samples were collected at Day 0 (D0), Day 2 (D2), and weekly intervals from the end of the 1st week (D7) until the end of the 6th week (D14, D21, D28, D35, and D42).
Eleven well-known compounds were tested in 7 different concentrations to generate concentration-response curves. The tested compounds with the used concentrations are detailed in Table S3. […] In each assay plate, 4 technical replicates were applied from each sample and 3 biological replicate assays were run (n = 3). The 3D cell cultures were exposed to the toxicants for 72 h (exposure schemes are detailed in Figure 5A or Figure 6A or Figure 7A). Vehicle control was used as a regular medium supplemented with 0.1% DMSO.
ATP viability assay was performed with CellTiter-Glo® 3D Cell Viability Assay, according to the manufacturer’s protocol (Promega). Neurospheres were lysed with 100 μL CellTiter-Glo® 3D Reagent for 60 min at RT. Luminescence signal was recorded with a Thermo VarioScan Flash (Thermo Fisher Scientific) plate reader.
All results were analyzed using Prism 5 (GraphPad Software, La Jolla, CA, USA) and handled in Microsoft Office 2010 (Microsoft, Redmond, WA, USA) software. For normalization of the concentration response, the average values of positive control were used as 0% and the average of vehicle control served as 100%. Four parameter curve fitting methods were used to determine EC10 and EC50 values, where the data on the graphs represent the average of three biological replicates. The “n” value corresponds to the number of biological replicates for each tested concentration. Analysis of data is presented as the mean ± SEM. Significance of data was determined with paired T test for RT-qPCR (* p < 0.01) and with One-way ANOVA for concentration response (* p < 0.05; ** p < 0.01).

humans = details: ref PubChem database (https://pubchem.ncbi.nlm.nih.gov/), cited from earlier work
[2] = system: in vitro multicellular cytotoxicity; details: multicellular cytotoxicity "comptox" data; ref EPA's Chemical dashboard (https://comptox.epa.gov/dashboard); cited from earlier work
rat = system: rat; design: method as in PubChem database (https://pubchem.ncbi.nlm.nih.gov/); details: ref PubChem database (https://pubchem.ncbi.nlm.nih.gov/), cited from earlier work
[3] = 72 h exposure, investigated concentration range
[4] = D21 3D neurospheres, 72 h exposure, read-out: EC10 (cell viability) (converted)
[5] = D21 3D neurospheres, 72 h exposure, read-out: EC25 (cell viability) (converted)
[6] = D21 3D neurospheres, 72 h exposure
[7] = D28 3D neurospheres, 72 h exposure, read-out: EC10 (cell viability) (converted)
[8] = D28 3D neurospheres, 72 h exposure, read-out: EC25 (cell viability) (converted)
[9] = D28 3D neurospheres, 72 h exposure
[10] = D42 3D neurospheres, 72 h exposure, read-out: EC10 (cell viability) (converted)
[11] = D42 3D neurospheres, 72 h exposure, read-out: EC25 (cell viability) (converted)
[12] = D42 3D neurospheres, 72 h exposure

SMILES | Effect on viability of 3D neurospheres (in words) [1, 3] | In vitro cytotoxicity limit [2] | EC10 [1, 4] | EC25 [1, 5] | EC50 [1, 6] | EC10 [1, 7] | EC25 [1, 8] | EC50 [1, 9] | EC10 [1, 10] | EC25 [1, 11] | EC50 [1, 12] | further results
C=CC(N)=O [Acrylamide, 2-Propenamide] | – | – | – | – | – | – | – | – | – | – | – | EC10 (cell viability) [1]: > 3.5 log µM; EC25 (cell viability) [1]: > 3.5 log µM
COc1cc2c(c(OC)c1OC)-c1ccc(OC)c(=O)cc1[C@@H](NC(C)=O)CC2 [Colchicine, (S)-N-(5,6,7,9-Tetrahydro-1,2,3,10-tetramethoxy-9-oxobenzo[a]heptalen-7-yl)acetamide] | had a strong effect on the viability, but did not kill all the cells | 0.02 µM | – | – | – | – | – | – | – | – | – | EC10 ([1]; read-out: EC10 (cell viability), D21 3D neurospheres, 72 h exposure): 0.000257 µM; EC10 ([1]; read-out: EC10 (cell viability), D42 3D neurospheres, 72 h exposure): 0.000282 µM; EC25 ([1]; read-out: EC25 (cell viability), D21 3D neurospheres, 72 h exposure): 0.00912 µM; EC25 ([1]; read-out: EC25 (cell viability), D28 3D neurospheres, 72 h exposure): 0.0129 µM; EC25 ([1]; read-out: EC25 (cell viability), D42 3D neurospheres, 72 h exposure): 0.00575 µM; Probable oral lethal dose in humans (humans; oral): < 5 mg/kg
COc1cccc2c1C(=O)c1c(O)c3c(c(O)c1C2=O)C[C@@](O)(C(=O)CO)C[C@@H]3O[C@H]1C[C@H](N)[C@H](O)[C@H](C)O1 [Doxorubicin, Doxorubicin hydrochloride] | caused maximum cell death | – | 0.263 µM | 1.1 µM | 4.68 µM | 2.14 µM | 5.25 µM | 12.9 µM | 3.09 µM | 7.94 µM | 20.9 µM | LD50 (rat; subcutaneous): • - Intercalating chemotherapy drug; • - inhibiting the movement of topoisomerase II, which leads to the blocking of both replication and transcription; and • - LD50: 21.8 mg/kg (rat, subcutaneous).
Oc1c(Cl)cc(Cl)c(Cl)c1Cc1c(O)c(Cl)cc(Cl)c1Cl [Hexachlorophene, 2,2′-Methylenebis(3,4,6-trichlorophenol)] | had a strong effect on the viability, but did not kill all the cells | 1.86 µM | 0.631 µM | 3.39 µM | 18.2 µM | 0.257 µM | 1.62 µM | 10.2 µM | 0.0661 µM | 0.457 µM | 3.16 µM | LD50 (rat; oral): 66 mg/kg
CC(C)Cc1ccc(C(C)C(=O)O)cc1 (stereo not drawn) [Ibuprofen, α-Methyl-4-(isobutyl)phenylacetic acid] | did not decrease the viability | – | > 100 µM | > 100 µM | > 100 µM | > 100 µM | > 100 µM | > 100 µM | > 100 µM | > 100 µM | > 100 µM | EC50 (cell viability) [1, 6]: > 2 log µM; Effect on cell viability (in words) ([1]; investigated concentration range, D21, D28, D42 neurospheres): no effect on neuronal cell viability; Consumed dose at which overdose symptoms appear (humans; individuals): > 99 mg/kg
